Consider one compound from US4767758A, “Pharmaceutical compositions containing thiophene compounds, and new thiophene compounds” (Consiglio Nazionale Delle Ricerche, priority 1984, dated 1988).

SMILES strings stand for the structures.

For data set [1], the system named is L 929 cells. Put plainly: Radiosensitization of cells in hypoxic condition under gamma radiation (Table 1). The data set is classed as cell-based. The conditions noted are these: concentration 1 × 10^-4 M. How it is done: The biological and pharmacological activity of the compounds under examination was tested on cell cultures and under gamma radiations. […] These aqueous solutions were added to cell cultures containing from 50 to 60 L 929 cells per mm^2; nutrient solution RPM-1-1640 containing 3% calf serum. Contact between the cells and the compound under examination was continued for six hours under nitrogen and under air. Parts of the solutions during the contact with the drug were irradiated in gamma cell with 1000, 2000 and 3000 rad always using a control sample without the drug.

For data set [2], the system named is L 929 cells. Put plainly: Cytotoxicity on cell cultures (Table 2). The following applies: 5 × 10^-5 M. As to the method:
The biological and pharmacological activity of the compounds under examination was tested on cell cultures and under gamma radiations. Concentrations of 10^-6, 5×10^-6, 10^-5 and 10^-3 M of each compound were used. These aqueous solutions were added to cell cultures containing from 50 to 60 L 929 cells per mm^2; nutrient solution RPM-1-1640 containing 3% calf serum. Contact between the cells and the compound under examination was continued for six hours under nitrogen and under air. Parts of the solutions during the contact with the drug were irradiated in gamma cell with 1000, 2000 and 3000 rad always using a control sample without the drug.

Data set [3] can be described thus: Reactivity with O2 radicals, pulsed electron beams (Table 3). The following applies: potassium formiate solution saturated with O2; 12 MeV pulsed electron beams. An excerpt:
(§1) For testing the reactivity with oxygen radicals, solutions of the compounds under examination in very pure water were submitted to irradiation by an electron flow in accordance with the following procedure:
The O2 species was generated by irradiation of a […] solution of potassium formiate satured with O2 with 12 MeV pulsed electron beams.
The concentration of the O2 radical produced is depending from the irradiation dose (which is proportional to the length of the pulse) and was in any case in excess with respect to the concentration of the reacting substance.

The subject of data set [4] is male mice. Put plainly: Acute toxicity test by oral and intravenous route on male mice (Table 4). The data set is classed as in vivo. The conditions noted are these: 14 days. How it is done:
(§2) The acute toxicity test was carried out by oral and intravenous route on male mice, weighing 19-21 g, which were deprived of meal for 16 hrs before treatment. Oral administration was performed by a gastric probe at doses of 500, 750, 1000 and 2000 mg/kg respectively, of the compounds under examination in aqueous solution of Tween (R). The intravenous administrations was performed in the caudal vein at doses of 100 and 200 mg/kg in 0.9% sodium chloride solution. The administered volumes were 1 ml/20 g by oral route and 0.5 ml/20 g by intravenous route.
(§3) After administration the mice were kept under control for 14 days.

Experiment in data set [5]: as above
The data set is classed as in vivo. The following applies: mouse, in vivo; oral, male mice. How it is done: as §2, §3

Data set [6] in a line: Reactivity with OH radicals, pulse irradiation (Table 3). The conditions noted are these: KCNS 10^-4 M; pulse 50 nsec, dose 18 Gy; λ=500 nm.
Description: as §1
The irradiated solution for measurement of reactivity with OH radicals contained KCNS 10^-4 M and increasing concentrations of the compounds under examination. The concentrations were 10^-6 and 6×10^-6for the first five compounds of Table 1, 10^-5 and 10^-4, 10^-3 M for the other eight compounds.
The water used for the tests was neutral and made absolutely pure by deionization and four distillations also in the presence of oxidizing agents (KMnO4).
The irradiation conditions were: pulse 50 nsec, dose 18 Gy.
Absorption was performed at λ=500 nm.

In general, LD50 refers to the dose at which mortality reaches 50%. Higher therefore signals a less toxic substance. Turning to `ON=Cc1ccc(Br)s1` [Compound 13, 5-bromo-2-thiophenaldoxime], in data set [1], the “Radiosensitization Index (R.S.I.)” value stood at 1.65. Further, the “Cytotoxicity Index (number of cells)” value in data set [2] (culture time 0 hr, control 40) was 43 number of cells; in data set [2] (culture time 6 hr, control 62), 50 number of cells; in data set [2] (culture time 12 hr, control 80) it was 70 number of cells; in data set [2] (culture time 24 hr, control 166) it was 130 number of cells. For the same compound, in data set [3], the “Reactivity with O2 radicals measured as a speed constant (KO2-·)” value turned out to be 23000 M⁻¹ s⁻¹. The “Death (dead/treated animals)” value in data set [4] (intravenous, 100 mg/kg) is reported as 0/5; in data set [4] (intravenous, 200 mg/kg), 0/5; in data set [4] (oral, 500 mg/kg), 0/5; in data set [4] (oral, 750 mg/kg), 0/5; in data set [4] (oral, 1000 mg/kg), 2/5; in data set [4] (oral, 2000 mg/kg), 3/5. The compound further gave an LD50 at 336 h in data set [5] of 1800 mg/kg. The “Reactivity with OH radicals measured as a speed constant (KOH·)” value in data set [6] amounted to 8e+09 M⁻¹ s⁻¹.
